Test: Human HepG2 cell viability assay in 384 well format
Type: toxicity, cell-based
Parameters: dose 125 nL, time 70.5 hour; cytotoxicity at 70.5 h: concentration not given beside the values
Conditions: HepG2 cells, read-out: Inhibition
Molecule `Cc1ccsc1CNC(=O)N(C)Cc1cnn(C)c1` has a cytotoxicity at 70.5 h of -12.7%.
`COCCCNC(=O)CN1CCC(N2CCN(C)C2=O)CC1` gave a cytotoxicity at 70.5 h of -10.4%.
Work on `CCn1nc(C)c(NC(=O)CN2CCC(c3ccccc3Cl)C2)c1C` (configuration not stated) yielded a cytotoxicity at 70.5 h of 21.2%.
With `CN(C(=O)C1CSCN1S(=O)(=O)c1ccc(F)cc1)C1CC1` (configuration not stated) the cytotoxicity at 70.5 h was -9.65%.
With `O=C(COc1coc(CN2CCOCC2)cc1=O)Nc1ccc(Cl)cc1` the cytotoxicity at 70.5 h was -17.6%.
In the case of `O=C1COc2cc(OC[C@@H]3CCCN4CCCC[C@H]34)ccc21`, the cytotoxicity at 70.5 h was 14.3%.
`CC(=O)N1CCN(C(=O)CN(C)c2ccc(Cl)cn2)CC1` gave a cytotoxicity at 70.5 h of -10.3%.
In the case of `OCCN1CCN(Cc2cc3c(cc2Br)OCCO3)CC1`, the cytotoxicity at 70.5 h was 20.1%.
`Cc1[nH]ccc1C(=O)N1CCC2(CC1)c1nc[nH]c1CCN2S(C)(=O)=O` gave a cytotoxicity at 70.5 h of -4.51%.
In the case of `Cc1cc(C(=O)NCCN2CCC(C)CC2)nn1C(C)(C)C`, the cytotoxicity at 70.5 h was -15.3%.
In the case of `CNc1cncc(C2CCCN2C(=O)Cn2ccnc2C)n1` (configuration not stated), the cytotoxicity at 70.5 h was -5.3%.
`CC(C(=O)N1CCN(C)CC1)n1cc(Br)cn1` (configuration not stated) gave a cytotoxicity at 70.5 h of -1.37%.
With `CNS(=O)(=O)Cc1ccc(CNC(=O)c2ccc(C)[nH]c2=O)cc1` the cytotoxicity at 70.5 h was -9.88%.
`Cc1ccccc1C(C)NC(=O)c1ccc(=O)n(C)c1` (configuration not stated) showed a cytotoxicity at 70.5 h of -4.64%.
With `CN(Cc1ccncc1)C(=O)NC1CCS(=O)(=O)C1` (configuration not stated) the cytotoxicity at 70.5 h was -3.72%.
Work on `O=C(c1ccc(Cl)s1)N1CCC2(COc3ncccc3S(=O)(=O)N2)C1` (configuration not stated) yielded a cytotoxicity at 70.5 h of -8.51%.
Molecule `CCC(CC)CN1CCC2(CCC(=O)N2OCc2ccccc2F)CC1` has a cytotoxicity at 70.5 h of 21.6%.
For `CCc1nc2n(n1)CC(NCC1=Cc3ccc(OC)cc3OC1)CC2` (configuration not stated), the cytotoxicity at 70.5 h was 2.24%.
`c1ccc(OCCN2CCC(c3cnccn3)CC2)cc1` gave a cytotoxicity at 70.5 h of 3.59%.
For `Cc1cnc(N2Cc3cnn(Cc4ccc(F)cc4)c3C2)nc1N(C)C`, the cytotoxicity at 70.5 h was -0.641%.
For `O=C(N1CCCC1)N1Cc2nccn2CC(CN2CCCC2)C1` (configuration not stated), the cytotoxicity at 70.5 h was -8.56%.
In the case of `Cn1nc(C2CCCN(Cc3cccc(F)c3)C2)c2nccnc21` (configuration not stated), the cytotoxicity at 70.5 h was -4.33%.
`Cc1ccc(CN2CCN(c3cc(NCCO)ncn3)CC2CCO)o1` (configuration not stated) showed a cytotoxicity at 70.5 h of -5.58%.
For `C=C(C)CN(CC)C(=O)c1cc(F)ccc1N1CCN(C)CC1`, the cytotoxicity at 70.5 h was -12.2%.
Work on `CCCOc1c(Cl)cc(C(=O)N2CCOC23CCN(C)CC3)cc1Cl` yielded a cytotoxicity at 70.5 h of 7.29%.
In the case of `COCc1cc(CC2(NC3CCCCC3)COC2)no1`, the cytotoxicity at 70.5 h was 9.57%.
In the case of `O=C(CN1CCC(C(=O)c2cc(F)ccc2F)CC1)NC1CC1`, the cytotoxicity at 70.5 h was -12%.
For `CS(=O)(=O)N1CCC(NC(=O)COc2ccc3ccccc3c2)CC1`, the cytotoxicity at 70.5 h was -1.61%.
`CCCc1ccc(S(=O)(=O)NC2(CC(N)=O)CCC2)cc1` gave a cytotoxicity at 70.5 h of 1.66%.
`Cc1cccnc1CN1CCOC(Cc2cccc3ccccc23)C1` (configuration not stated) showed a cytotoxicity at 70.5 h of -6.62%.
Molecule `CN1CCN(C2CCN(Cc3nc(-c4ccoc4)no3)CC2)C1=O` has a cytotoxicity at 70.5 h of -6.16%.
In the case of `O=C(CCC(=O)NCc1cccc(Br)c1)NCCN1CCCC1`, the cytotoxicity at 70.5 h was 23.6%.
For `O=c1ncn(-c2cccc(F)c2)c2ncccc12`, the cytotoxicity at 70.5 h was -0.419%.
`N#Cc1cccc(CN2CC[C@@H]3CN(c4ncccn4)CCO[C@@H]3C2)c1` showed a cytotoxicity at 70.5 h of 21.7%.
Molecule `CC(C)COC(=O)N1CCCN(C(=O)c2ccnc(N(C)C)c2)CC1` has a cytotoxicity at 70.5 h of 1.08%.
Molecule `CC(C)CCN1Cc2c(C(=O)O)ncn2-c2ccccc2S1(=O)=O` has a cytotoxicity at 70.5 h of 30.1%.
In the case of `CN1C(=O)CC(C(=O)O)C12CCN(Cc1ccc(Cl)c(F)c1)CC2` (configuration not stated), the cytotoxicity at 70.5 h was 9.92%.
With `COCc1ccc(C(=O)N2CCC(Oc3ccccc3OC)CC2)s1` the cytotoxicity at 70.5 h was -15%.
`O=C(Nc1ccccn1)NC(CCCO)c1ccccc1` (configuration not stated) showed a cytotoxicity at 70.5 h of -5.11%.
For `CCCc1ccc(S(=O)(=O)NC(=O)CCC2CCCO2)cc1` (configuration not stated), the cytotoxicity at 70.5 h was 3.11%.
Molecule `N#Cc1cccc(S(=O)(=O)NC(=O)c2csc(-c3ccco3)n2)c1` has a cytotoxicity at 70.5 h of 16.6%.
Molecule `Cc1ccc(S(=O)(=O)N(C)CC(N)=O)c(Cl)c1` has a cytotoxicity at 70.5 h of -10.6%.
Work on `COc1ccc(C(=O)NCCCNc2ccc(C(F)(F)F)cn2)cc1` yielded a cytotoxicity at 70.5 h of -17.2%.
For `CNC(=O)COC(=O)c1ccn(-c2ccc(Cl)c(Cl)c2)n1`, the cytotoxicity at 70.5 h was 24.2%.
Work on `COCc1nc2cc(NCc3ccc(CO)o3)ccc2o1` yielded a cytotoxicity at 70.5 h of 14.6%.
Molecule `CCCc1n[nH]c(C2CN(C(=O)CCCn3cccn3)CCO2)n1` (configuration not stated) has a cytotoxicity at 70.5 h of -7.13%.
For `CCOc1ccccc1-c1noc(CN2CC(n3cccn3)C2)n1`, the cytotoxicity at 70.5 h was -14.4%.
Molecule `CC(C)N1CCOC(Cc2nn3c(Cc4ccccc4)nnc3s2)C1` (configuration not stated) has a cytotoxicity at 70.5 h of -18.2%.
Work on `COCC(=O)N1CCCC2(CCN(CCN3CCCC3)CC2)C1` yielded a cytotoxicity at 70.5 h of -1.48%.
With `Cc1nccn1-c1ncccc1CNC(=O)c1ccc(O)nc1` the cytotoxicity at 70.5 h was -10.6%.
`CCN(CCS(=O)(=O)CC)CC1CCCO1` (configuration not stated) showed a cytotoxicity at 70.5 h of -3.45%.
For `Cc1cc(N2CCc3cnc(C)nc3C2)n2nc(C(F)(F)F)nc2n1`, the cytotoxicity at 70.5 h was -108%.
Molecule `Cc1ccc(-c2noc(CC[C@@H]3CCCN4CCCC[C@H]34)n2)nn1` has a cytotoxicity at 70.5 h of -3.37%.
`O=C(Nc1ccccc1)c1ccc(NCc2ccccc2CO)nn1` gave a cytotoxicity at 70.5 h of -6.13%.
Work on `CCC(C)NC(=O)c1cc(S(N)(=O)=O)c(Br)s1` (configuration not stated) yielded a cytotoxicity at 70.5 h of -6.88%.
For `CCCn1ncc(C(=O)NC2CCN(CC3CCCO3)CC2)c1C` (configuration not stated), the cytotoxicity at 70.5 h was 25.6%.
For `Cc1oncc1C(=O)N1CC2CC1(C(=O)NCc1ccco1)C2`, the cytotoxicity at 70.5 h was -10.9%.

Reference: ChEMBL document CHEMBL3507680, “University of Dundee, Gates Library screen for HepG2 cell viability”
